Data set [1] deals with HBV (HepG2.117 cell line, inducibly HBV producing). The data set is described as follows: Anti-HBV activity, intracellular HBV DNA by real-time PCR in HepG2.117 cell line. The class given is cell-based, hepatitis B virus. As to conditions: HepG2.117 cells, 3 days of treatment. In short, it runs like this:
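Readout is intracellular HBV DNA, measured by real-time PCR with HBV-specific primers and probe after 3 days of exposure to serial compound dilutions. Cells are the stable HepG2.117 line, where HBV replication is induced in the absence of doxycycline.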

The nature of data set [2]: Human liver microsome stability. The class given is in vitro ADME. In short, it runs like this: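 Half-life came from elimination rate constant (negative slope of ln compound/internal standard area ratio over time), measured by cassette LC-MS after acetonitrile quench. Human liver microsome reactions, one replicate per compound, were initiated with NADPH (1 mM final) and sampled at six points up to 60 min.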

Another data set relates to HepG2 or HepG2.117 cells. Nature of the data set: Cytotoxicity, ATPlite Luminescence Assay. Type of data set: cell-based, human. As to conditions: 3-days incubation unless marked with *. In outline: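 HepG2/HepG2.117; compound exposure 3–4 d; viability readout = ATPlite luminescence.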
The mark [3] stands for this setting: pooled human liver microsomes 0.5 mg/mL, 1 μM compound, NADPH 1 mM, 37° C., 0-60 min.

In turn, `CC(c1ccc(C(C)(C)O)nc1)N1C[C@@H](C)n2nc3c(c2C1=O)CN(C(=O)c1ccc(Cl)c(C(F)(F)F)n1)[C@H](C)C3` (single isomer, unassigned) [Compound 62B, (3R,7R)-2-(5-chloro-6-(trifluoromethyl)picolinoyl)-9-((S*)-1-(6-(2-hydroxypropan-2-yl)pyridin-3-yl)ethyl)-3,7-dimethyl-1,2,3,4,8,9-hexahydropyrido[4′,3′:3,4]pyrazolo[1,5-a]pyrazin-10(7H)-one] registered an EC50 in data set [1] of 0.068 µM. In addition, in data set [2] (setting [3]), the “HLM Metabolism t1/2” value was 2.07 h. For the same molecule, the CC50 in the data set on HepG2 or HepG2.117 cells is > 50 µM.
The matching figures for `CC(c1ccc(C(C)(C)O)nc1)N1C[C@@H](C)n2nc3c(c2C1=O)CN(C(=O)c1ccc(Cl)c(F)c1F)[C@H](C)C3` (single isomer, unassigned) [Compound 61B, (3R,7R)-2-(4-chloro-2,3-difluorobenzoyl)-9-((S*)-1-(6-(2-hydroxypropan-2-yl)pyridin-3-yl)ethyl)-3,7-dimethyl-1,2,3,4,8,9-hexahydropyrido[4′,3′:3,4]pyrazolo[1,5-a]pyrazin-10(7H)-one]: 0.3 µM, 2.25 h and > 50 µM.
The corresponding values for `CC(c1cnn(C2CC2)c(=O)c1)N1C[C@@H](C)n2nc3c(c2C1=O)CN(C(=O)c1ccc(Cl)c(C(F)(F)F)c1)[C@H](C)C3` (single isomer, unassigned) [Compound 54B, (3R,7R)-2-(4-chloro-3-(trifluoromethyl)benzoyl)-9-((S*)-1-(1-cyclopropyl-6-oxo-1,6-dihydropyridazin-4-yl)ethyl)-3,7-dimethyl-1,2,3,4,8,9-hexahydropyrido[4′,3′: 3,4]pyrazolo[1,5-a]pyrazin-10(7H)-one] are 0.01 µM, 1.95 h and > 50 µM.
The corresponding values for `CC(c1ncc(C(F)(F)F)cn1)N1C[C@@H](C)n2nc3c(c2C1=O)CN(C(=O)c1ccc(Cl)c(Cl)c1)[C@H](C)C3` (single isomer, unassigned) [Compound 40B, (3R,7R)-2-(3,4-dichlorobenzoyl)-3,7-dimethyl-9-((S*)-1-(5-(trifluoromethyl)pyrimidin-2-yl)ethyl)-1,2,3,4,8,9-hexahydropyrido[4′,3′:3,4]pyrazolo[1,5-a]pyrazin-10(7H)-one] are 0.26 µM, >3 h and 22.9 µM.
For the molecule `CC(c1ccc(=O)n(C)n1)N1C[C@@H](C)n2nc3c(c2C1=O)CN(C(=O)c1ccc(Cl)c(Cl)c1)[C@H](C)C3` (single isomer, unassigned) [Compound 55B, (3R,7R)-2-(3,4-dichlorobenzoyl)-3,7-dimethyl-9-((S*)-1-(1-methyl-6-oxo-1,6-dihydropyridazin-3-yl)ethyl)-1,2,3,4,8,9-hexahydropyrido[4′,3′:3,4]pyrazolo[1,5-a]pyrazin-10(7H)-one], it took 0.06 µM to reach a half-maximal effect in data set [1] (EC50). In addition, the “HLM Metabolism t1/2” value in data set [2] (setting [3]) is >3 h. Also, the CC50 in the data set with HepG2 or HepG2.117 cells is > 50 µM.
Consider `CC(c1ccc(N2CCCS2(=O)=O)nc1)N1C[C@@H](C)n2nc3c(c2C1=O)CN(C(=O)c1ccc(Cl)c(C(F)(F)F)c1)[C@H](C)C3` (single isomer, unassigned) [Compound 28B, (3R,7R)-2-(4-chloro-3-(trifluoromethyl)benzoyl)-9-((S*)-1-(6-(1,1-dioxidoisothiazolidin-2-yl)pyridin-3-yl)ethyl)-3,7-dimethyl-1,2,3,4,8,9-hexahydropyrido[4′,3′: 3,4]pyrazolo[1,5-a]pyrazin-10(7H)-one], for which, in data set [1], it took 0.011 µM to reach a half-maximal effect (EC50). In addition, the “HLM Metabolism t1/2” value in data set [2] (setting [3]) is 2.37 h. For the same molecule, the CC50 in the data set with HepG2 or HepG2.117 cells was > 50 µM.
As to `C[C@@H]1Cc2nn3c(c2CN1C(=O)c1ccc(Cl)c(C(F)(F)F)c1)C(=O)N([C@@H](C)c1ccc([S@@](C)(=O)=NC#N)cc1)C[C@H]3C` (relative stereo) [Compound 20C, N—((R*)-(4-((S*)-1-((3R,7R)-2-(4-chloro-3-(trifluoromethyl)benzoyl)-3,7-dimethyl-10-oxo-1,3,4,7,8,10-hexahydropyrido[4′,3′:3,4]pyrazolo[1,5-a]pyrazin-9(2H)-yl)ethyl)phenyl)(methyl)(oxo)-16-sulfaneylidene)cyanamide], a half-maximal effect in data set [1] (EC50) was put at 0.016 µM. For the same molecule, in data set [2] (setting [3]), the “HLM Metabolism t1/2” value was found to be 1.02 h. Besides, the CC50 in the data set on HepG2 or HepG2.117 cells was > 50 µM.
`Cc1nnn(-c2ccc(C(C)N3C[C@@H](C)n4nc5c(c4C3=O)CN(C(=O)c3ccc(Cl)c(Cl)c3)[C@H](C)C5)cn2)n1` (single isomer, unassigned) [Compound 26B, (3R,7R)-2-(3,4-dichlorobenzoyl)-3,7-dimethyl-9-((S*)-1-(6-(5-methyl-2H-tetrazol-2-yl)pyridin-3-yl)ethyl)-1,2,3,4,8,9-hexahydropyrido[4′,3′:3,4]pyrazolo[1,5-a]pyrazin-10(7H)-one] showed an EC50 in data set [1] of 0.02 µM. For the same molecule, the “HLM Metabolism t1/2” value in data set [2] (setting [3]) turned out to be 1.13 h. Further, the CC50 with HepG2 or HepG2.117 cells was > 50 µM.
In data set [1], `CNC(=O)c1ccc(C(C)N2C[C@@H](C)n3nc4c(c3C2=O)CN(C(=O)c2ccc(Cl)c(Cl)c2)[C@H](C)C4)cn1` (single isomer, unassigned) [Compound 24B, 5-((S*)-1-((3R,7R)-2-(3,4-dichlorobenzoyl)-3,7-dimethyl-10-oxo-1,3,4,7,8,10-hexahydropyrido[4′,3′:3,4]pyrazolo[1,5-a]pyrazin-9(2H)-yl)ethyl)-N-methylpicolinamide] yielded an EC50 of 0.02 µM. Further, the “HLM Metabolism t1/2” value in data set [2] (setting [3]) was >3 h. Moreover, the 50% cytotoxic concentration (CC50) in the data set with HepG2 or HepG2.117 cells was > 50 µM.
The matching figures for `C[C@@H]1Cc2nn3c(c2CN1C(=O)c1ccc(Cl)c(C(F)(F)F)c1)C(=O)N([C@H](C)c1ccc([S@@](C)(=O)=NC#N)cc1)C[C@H]3C` (relative stereo) [Compound 20A, N—((R*)-(4-((R*)-1-((3R,7R)-2-(4-chloro-3-(trifluoromethyl)benzoyl)-3,7-dimethyl-10-oxo-1,3,4,7,8,10-hexahydropyrido[4′,3′:3,4]pyrazolo[1,5-a]pyrazin-9(2H)-yl)ethyl)phenyl)(methyl)(oxo)-16-sulfaneylidene)cyanamide]: 0.041 µM, >3 h and > 50 µM.
The corresponding values for `CC(c1cnc(C(C)(C)O)nc1)N1C[C@@H](C)n2nc3c(c2C1=O)CN(C(=O)c1ccc(Cl)c(Cl)c1)[C@H](C)C3` (single isomer, unassigned) [Compound 36B, (3R,7R)-2-(3,4-Dichlorobenzoyl)-9-((S*)-1-(2-(2-hydroxypropan-2-yl)pyrimidin-5-yl)ethyl)-3,7-dimethyl-1,2,3,4,8,9-hexahydropyrido[4′,3′:3,4]pyrazolo[1,5-a]pyrazin-10(7H)-one] are 0.029 µM, >3 h and > 50 µM.
The matching figures for `CC(c1nnc(C2CC2)o1)N1C[C@@H](C)n2nc3c(c2C1=O)CN(C(=O)c1ccc(Cl)c(Cl)c1)[C@H](C)C3` (single isomer, unassigned) [Compound 44B, (3R,7R)-9-((S*)-1-(5-cyclopropyl-1,3,4-oxadiazol-2-yl)ethyl)-2-(3,4-dichlorobenzoyl)-3,7-dimethyl-1,2,3,4,8,9-hexahydropyrido[4′,3′:3,4]pyrazolo[1,5-a]pyrazin-10(7H)-one]: 0.065 µM, 2.22 h and > 50 µM.
In turn, `CC(c1cnn(C)c(=O)c1)N1C[C@@H](C)n2nc3c(c2C1=O)CN(C(=O)c1ccc(Cl)c(C(F)(F)F)c1)[C@H](C)C3` (single isomer, unassigned) [Compound 52B, (3R,7R)-2-(4-chloro-3-(trifluoromethyl)benzoyl)-3,7-dimethyl-9-((S*)-1-(1-methyl-6-oxo-1,6-dihydropyridazin-4-yl)ethyl)-1,2,3,4,8,9-hexahydropyrido [4′,3′:3,4]pyrazolo[1,5-a]pyrazin-10(7H)-one] displayed a concentration giving a half-maximal response (EC50) in data set [1] of 0.016 µM. The “HLM Metabolism t1/2” value in data set [2] (setting [3]) is >3 h. Further, the CC50 in the data set on HepG2 or HepG2.117 cells was > 50 µM.
Molecule `C[C@@H]1Cc2nn3c(c2CN1C(=O)c1ccc(Cl)c(C#N)c1)C(=O)N([C@@H](C)c1ccc(OC(F)F)cc1)C[C@H]3C` (relative stereo) [Compound 1D, 2-Chloro-5-((3R,7R*)-9-((S*)-1-(4-(difluoromethoxy)phenyl)ethyl)-3,7-dimethyl-O-oxo-1,2,3,4,7,8,9,10-octahydropyrido[4′,3′:3,4]pyrazolo[1,5-a]pyrazine-2-carbonyl)benzonitrile] registered an EC50 in data set [1] of 0.021 µM. The “HLM Metabolism t1/2” value in data set [2] (human, microsomes) was >3 h. The CC50 in the data set on HepG2 or HepG2.117 cells was > 50 µM.
In turn, `CC(c1cnn(C(C)C)c(=O)c1)N1C[C@@H](C)n2nc3c(c2C1=O)CN(C(=O)c1ccc(Cl)c(C(F)(F)F)c1)[C@H](C)C3` (single isomer, unassigned) [Compound 53B, (3R,7R)-2-(4-chloro-3-(trifluoromethyl)benzoyl)-9-((S*)-1-(1-isopropyl-6-oxo-1,6-dihydropyridazin-4-yl)ethyl)-3,7-dimethyl-1,2,3,4,8,9-hexahydropyrido[4′,3′:3,4]pyrazolo[1,5-a]pyrazin-10(7H)-one] came in with an EC50 in data set [1] of 0.01 µM. Moreover, in data set [2] (setting [3]), the “HLM Metabolism t1/2” value is 1.18 h. The CC50 with HepG2 or HepG2.117 cells is > 50 µM.

Values taken from patent publication US20240287070A1, “FUSED HETEROCYCLIC DERIVATIVES” (Janssen Sciences Ireland Unlimited Company, priority 2021, published 2024).
